Assay results published in US20120220548A1, “Compositions and methods for treatment of virus-associated cancer cells” (priority 2011, published 2012).

Legend:
[1] = test system: BCBL-1 cells; settings: 3 weeks
Protocol: Mice were injected with 2×10^7 BCBL-1 cells and were weighed as a function of time every week for 3 weeks, to assess tumor growth. […] The weight is shown on the ordinate and time in days on the abscissa.
Mice were injected with 2×10^7 BCBL-1 cells (a strain of PEL cells) and were weighed as a function of time every week for three weeks, to assess tumor growth. Weight was compared to control mice not receiving BCBL-1 cells.

[2] = test system: BCBL-1 primary effusion lymphoma (PEL) cells; assay: rapamycin cell killing of BCBL-1 PEL cells in culture with or without oHA (relative cell viability); format: cell-based, human
Protocol: The cells used are the PEL strain known as body cavity-based lymphoma-1 (BCBL-l; diamonds and squares). The squares indicate data from cells to which oHA was added along with rapamycin.
Cell viability was assessed using both MTT and Trypan blue exclusion assays as described in Qin Z, et al. PLoS Pathog 2010; 6(1): e1000742. For MTT assays, a total of 5×10^3 PEL cells were incubated individual wells of a 96-well plate for 24 hours. Serial dilutions of paclitaxel, doxorubicin or oHAs were added and subsequently incubated in 1 mg/ml MTT solution (Sigma-Aldrich) at 37° C. for 3 hours. Thereafter, cells were incubated in 50% dimethylsulfoxide overnight and optical densities determined at 570 nm using a spectrophotometer (Thermo Labsystems, West Palm Beach, Fla., USA). For Trypan blue exclusion assays, cells were incubated with 0.4% Trypan blue (MP Biomedicals, Northbrook, Ill., USA) and observed under light microscopy. Relative cell viability was determined after assessment of at least 1000 cells per condition for each experiment using the following formula: (no. of live cells/no. of total cells for experimental conditions)/ (no. of live cells/no. of total cells for vehicle-treated control cells). […]

[3] = doxorubicin 0.2 mg/kg intraperitoneally

`COc1cccc2c1C(=O)c1c(O)c3c(c(O)c1C2=O)C[C@@](O)(C(=O)CO)C[C@@H]3O[C@H]1C[C@H](N)[C@H](O)[C@H](C)O1` [doxorubicin] was tested, and the “effect on progress of lymphoma (weight gain)” value ([1]; doxorubicin 0.2 mg/kg i.p., oHA 0.5 mg/kg i.p.) was “only slightly reduced the increase in weight”, the tumor-associated weight gain [1, 3] was 4 to 7 g and the “tumor-associated weight gain from baseline weight of 25-28g” value [1, 3] was “approximately 35%”.
For `CO[C@H]1C[C@@H]2CC[C@@H](C)[C@@](O)(O2)C(=O)C(=O)N2CCCC[C@H]2C(=O)O[C@H]([C@H](C)C[C@@H]2CC[C@@H](O)[C@H](OC)C2)CC(=O)[C@H](C)/C=C(\C)[C@@H](O)[C@@H](OC)C(=O)[C@H](C)C[C@H](C)/C=C/C=C/C=C/1C` [rapamycin], the “survival (relative cell viability)” value ([2]; 1 nM rapamycin, this agent alone) was “greater than 0.95” and the IC50 ([2]; Homo sapiens, BCBL1, read-out: concentration of rapamycin giving cell death of about half the cells, rapamycin alone) was 0.01 to 0.02 µM.
